Data reported in US5985893A, “Physically stable solid form of a fluoroquinolone” (Pharmacia & Upjohn Company, priority 1996, dated 1999).

Key:
[1] = Dynamic moisture sorption gravimetry (controlled atmosphere microbalance, 25° C); assay type: physicochemical
Experimental: Dynamic Moisture Sorption Gravimetry
Dynamic moisture uptake is studied on the controlled atmosphere microbalance system at 25° C. About ten mg of sample are equilibrated on the balance for about 2 hours at 2.5% RH. The relative humidity surrounding the sample is increased in increments of 3% RH up to about 92% RH, at which point the RH is decremented in 3% steps to a final RH of about 2.5%. At each relative humidity, the sample is allowed to equilibrate until the mass is stable within 0.0005 mg over a ten minute period. The dry mass is assumed to correspond to the mass of the sample after the initial equilibration period. A controlled atmosphere microbalance is a balance system described by Bergren, M.S. Int. J. Pharm. (1994) Vol. 103, pp. 103-114.
(§1) Detailed description of FIG. 2. […] The ordinate represents the mass change relative to the lowest mass measurement. The abscissa is relative humidity. The circles represent points recorded after sequential increases in the relative humidity and the squares were recorded after decreases in the relative humidity. The horizontal line in the middle of the plot corresponds to the water content of the hypothetical monohydrate of the quinolone.
as §1, with “6.” for “2.”

[2] = Powder XRD after humidity exposure; assay type: physicochemical; settings: 75% relative humidity, ambient temperature, 5 days
Experimental: A Rigaku DMAX-A X-ray diffractometer is employed for the acquisition of the powder XRD patterns. The instrument is operated with the copper K-L3 radiation at 1.5406 Å. The major instrumental parameters are set as follows: 40 KV voltage, 30 mA current, beam aperture of 1° and detector aperture (receiving slit) of 0.30°. Patterns are scanned over the range of 3-40° two-theta angles with a scan rate of 1.5° two-theta/min (step size of 0.05° and counting time at 2 second/step). Samples are ground to fine powders and packed into an aluminum tray.

CN[C@@H](C)[C@@H]1CCN(c2c(F)cc3c(=O)c(C(=O)O)cn(C4CC4)c3c2OC)C1 [Form I, [S-(R*,S*)]-1-cyclopropyl-6-fluoro-1,4-dihydro-8-methoxy-7-[3-[1-(methylamino)ethyl]-1-pyrrolidinyl]-4-oxo-3-quinolinecarboxylic acid]
Moisture content on desorption ([1]; RH decreased to 10%): about 4.3%
Moisture content on desorption ([1]; RH decreased to 80%): about 4.9%
Moisture plateau ([1]; sorption, 90-92% RH): 7.5-7.7 % w/w
Moisture pickup ([1]; sorption, up to 70% RH): 1%
Diffraction pattern after humidity exposure [2]: does not change after Form I is exposed to 75% relative humidity at ambient temperature for 5 days
